Laboratory results as given in patent US20210317092A1 (BAYER PHARMA AKTIENGESELLSCHAFT, priority 2016, published 2021).
pIC50: −log10 of the molar value.

Molecular target: T1, human Bradykinin B1 receptor (Homo sapiens, UniProt P46663)
T1 construct: host or cells: CHO-K1
T1 sequence (P46663 1-353): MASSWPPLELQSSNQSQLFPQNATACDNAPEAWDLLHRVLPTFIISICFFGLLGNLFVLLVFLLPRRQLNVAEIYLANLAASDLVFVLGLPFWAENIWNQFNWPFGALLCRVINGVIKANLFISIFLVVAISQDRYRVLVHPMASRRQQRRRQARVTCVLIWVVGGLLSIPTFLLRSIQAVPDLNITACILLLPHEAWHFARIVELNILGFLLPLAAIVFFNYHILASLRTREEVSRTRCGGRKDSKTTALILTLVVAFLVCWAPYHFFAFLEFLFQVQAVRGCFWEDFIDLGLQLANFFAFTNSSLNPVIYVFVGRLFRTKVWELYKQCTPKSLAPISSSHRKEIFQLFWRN
Test: Calcium flux Assay (FLIPR) with recombinant CHO-K1 cells expressing human Bradykinin B1 receptor, in presence (hB1 IC50) or absence (hB1 free IC50) of 0.1% BSA
Format: cell-based
Conditions: in absence of 0.1% BSA, read-out: hB1 free IC50

| SMILES | pIC50 |
| --- | --- |
| O=C(Nc1ccc(-c2cc(F)cc(C(F)(F)F)c2)c(-c2nnn[nH]2)c1)C1(c2ccc(C(F)(F)F)cc2F)CC1 [Example 129, N-[3′-fluoro-2-(1H-tetrazol-5-yl)-5′-(trifluoromethyl)biphenyl-4-yl]-1-[2-fluoro-4-(trifluoromethyl)phenyl] cyclopropane-carboxamide] | 7.11 |
| COc1cc(-c2ccc(NC(=O)C3(c4ccc(C(F)(F)F)cc4F)CC3)cc2-c2nnn[nH]2)cc(C(F)(F)F)c1 [Example 133, 1-[2-fluoro-4-(trifluoromethyl)phenyl]-N-[3′-methoxy-2-(1H-tetrazol-5-yl)-5′-(trifluoromethyl)biphenyl-4-yl]cyclopropane carboxamide] | 6.66 |
| O=C(Nc1ccc(-c2ccc(C(F)(F)F)nc2)c(-c2nnn[nH]2)c1)C1(c2ccc(F)cc2F)CC1 [Example 142, 1-(2,4-difluorophenyl)-N-{3-(1H-tetrazol-5-yl)-4-[6-(trifluoromethyl)pyridin-3-yl]phenyl} cyclopropane-carboxamide] | 6.70 |
| O=C(Nc1ccc(-c2ccc(C(F)(F)F)nc2)c(-c2nnn[nH]2)c1)C1(c2cc(F)c(F)cc2F)CC1 [Example 143, N-{3-(1H-tetrazol-5-yl)-4-[6-(trifluoromethyl)pyridin-3-yl]phenyl}-1-(2,4,5-trifluorophenyl) cyclopropane-carboxamide] | 6.84 |
| O=C(Nc1ccc(-c2ccc(C(F)(F)F)nc2)c(-c2nnn[nH]2)c1)C1(c2ccc(F)cn2)CC1 [Example 145, 1-(5-fluoropyridin-2-yl)-N-{3-(1H-tetrazol-5-yl)-4-[6-(trifluoromethyl)pyridin-3-yl]phenyl} cyclopropane-carboxamide] | 6.71 |
| CCOc1ncc(-c2ccc(NC(=O)C3(c4cccc(Cl)c4F)CC3)cc2-c2nnn[nH]2)cc1C(F)(F)F [Example 159, 1-(3-chloro-2-fluorophenyl)-N-{4-[6-ethoxy-5-(trifluoromethyl)pyridin-3-yl]-3-(1H-tetrazol-5-yl)phenyl} cyclopropane-carboxamide] | 7.39 |

Second part, the compound after the results:

| pIC50 | SMILES |
| --- | --- |
| 6.44 | O=C(Nc1ccc(-c2cc(F)cc(C(F)(F)F)c2)c(-c2nnn[nH]2)c1)C1(c2cccc(Cl)c2)CC1 [Example 130, 1-(3-chlorophenyl)-N-[3′-fluoro-2-(1H-tetrazol-5-yl)-5′-(trifluoromethyl)biphenyl-4-yl]cyclopropane carboxamide] |
| 7.28 | COc1ccc(-c2ccc(NC(=O)C3(c4ccc(C(F)(F)F)cc4F)CC3)cc2-c2nnn[nH]2)cc1C(F)(F)F [Example 131, 1-[2-fluoro-4-(trifluoromethyl)phenyl]-N-[4′-methoxy-2-(1H-tetrazol-5-yl)-3′-(trifluoromethyl)biphenyl-4-yl]cyclopropane carboxamide] |
| 6.63 | COc1ccc(-c2ccc(NC(=O)C3(c4cccc(Cl)c4)CC3)cc2-c2nnn[nH]2)cc1C(F)(F)F [Example 132, 1-(3-chlorophenyl)-N-[4′-methoxy-2-(1H-tetrazol-5-yl)-3′-(trifluoromethyl)biphenyl-4-yl]cyclopropane carboxamide] |
| 6.24 | COc1cc(-c2ccc(NC(=O)C3(c4cccc(Cl)c4)CC3)cc2-c2nnn[nH]2)cc(C(F)(F)F)c1 [Example 134, 1-(3-chlorophenyl)-N-[3′-methoxy-2-(1H-tetrazol-5-yl)-5′-(trifluoromethyl)biphenyl-4-yl]cyclopropane carboxamide] |
| 7.00 | COc1cc(-c2ccc(NC(=O)C3(c4cccc(Cl)c4)CC3)cc2-c2nnn[nH]2)cnc1C(F)(F)F [Example 146, 1-(3-chlorophenyl)-N-{4-[5-methoxy-6-(trifluoromethyl)pyridin-3-yl]-3-(1H-tetrazol-5-yl)phenyl} cyclopropane-carboxamide] |

Same assay, conditions: in presence of 0.1% BSA, read-out: hB1 IC50

| SMILES | pIC50 |
| --- | --- |
| COc1cncc(-c2ccc(NC(=O)C3(c4ccc(F)cc4F)CC3)cc2-c2nnn[nH]2)c1 [Example 150, 1-(2,4-difluorophenyl)-N-[4-(5-methoxypyridin-3-yl)-3-(1H-tetrazol-5-yl)phenyl] cyclopropane-carboxamide] | 7.41 |
| COc1cncc(-c2ccc(NC(=O)C3(c4cccc(C)c4)CC3)cc2-c2nnn[nH]2)c1 [Example 151, N-[4(5-methoxypyridin-3-yl)-3-(1H-tetrazol-5-yl)phenyl]-1-(3-methylphenyl) cyclopropane-carboxamide] | 6.90 |
| CCOc1cncc(-c2ccc(NC(=O)C3(c4cccc(C(F)(F)F)c4)CC3)cc2-c2nnn[nH]2)c1 [Example 155, N-[4-(5-ethoxypyridin-3-yl)-3-(1H-tetrazol-5-yl)phenyl]-1-[3-(trifluoromethyl)phenyl] cyclopropane-carboxamide] | 6.66 |
| CCOc1cncc(-c2ccc(NC(=O)C3(c4ccc(F)cc4F)CC3)cc2-c2nnn[nH]2)c1 [Example 157, 1-(2,4-difluorophenyl)-N-[4-(5-ethoxypyridin-3-yl)-3-(1H-tetrazol-5-yl)phenyl] cyclopropane-carboxamide] | 6.85 |
| CCOc1ncc(-c2ccc(NC(=O)C3(c4cccc(Cl)c4F)CC3)cc2-c2nnn[nH]2)cc1C(F)(F)F [Example 159, 1-(3-chloro-2-fluorophenyl)-N-{4-[6-ethoxy-5-(trifluoromethyl)pyridin-3-yl]-3-(1H-tetrazol-5-yl)phenyl} cyclopropane-carboxamide] | 6.23 |
| CCOc1ncc(-c2ccc(NC(=O)C3(c4ccc(C(F)(F)F)cc4)CC3)cc2-c2nnn[nH]2)cc1C [Example 161, N-[4-(6-ethoxy-5-methylpyridin-3-yl)-3-(1H-tetrazol-5-yl)phenyl]-1-[4-(trifluoromethyl)phenyl] cyclopropane-carboxamide] | 7.60 |
| CCOc1ncc(-c2ccc(NC(=O)C3(c4ccc(F)cc4F)CC3)cc2-c2nnn[nH]2)cc1C [Example 162, 1-(2,4-difluorophenyl)-N-[4-(6-ethoxy-5-methylpyridin-3-yl)-3-(1H-tetrazol-5-yl)phenyl] cyclopropane-carboxamide] | 7.23 |
| CCOc1ncc(-c2ccc(NC(=O)C3(c4ccc(C(F)(F)F)cc4)CC3)cc2-c2nnn[nH]2)cc1F [Example 164, N-[4-(6-ethoxy-5-fluoropyridin-3-yl)-3-(1H-tetrazol-5-yl)phenyl]-1-[4-(trifluoromethyl)phenyl] cyclopropane-carboxamide] | 7.84 |
| CCOc1ncc(-c2ccc(NC(=O)C3(c4ccc(F)cc4F)CC3)cc2-c2nnn[nH]2)cc1F [Example 165, 1-(2,4-difluorophenyl)-N-[4-(6-ethoxy-5-fluoropyridin-3-yl)-3-(1H-tetrazol-5-yl)phenyl] cyclopropane-carboxamide] | 7.19 |

The remaining lines, values ahead:

| pIC50 | SMILES |
| --- | --- |
| 7.63 | COc1cncc(-c2ccc(NC(=O)C3(c4cccc(C(F)(F)F)c4)CC3)cc2-c2nnn[nH]2)c1 [Example 152, N-[4-(5-methoxypyridin-3-yl)-3-(1H-tetrazol-5-yl)phenyl]-1-[3-(trifluoromethyl)phenyl] cyclopropane-carboxamide] |
| 7.57 | COc1cncc(-c2ccc(NC(=O)C3(c4ccc(C(F)(F)F)cc4)CC3)cc2-c2nnn[nH]2)c1 [Example 154, N-[4-(5-methoxypyridin-3-yl)-3-(1H-tetrazol-5-yl)phenyl]-1-[4-(trifluoromethyl)phenyl] cyclopropane-carboxamide] |
| 6.12 | CCOc1ncc(-c2ccc(NC(=O)C3(c4cccc(Cl)c4)CC3)cc2-c2nnn[nH]2)cc1C(F)(F)F [Example 158, 1-(3-chlorophenyl)-N-{4-[6-ethoxy-5-(trifluoromethyl)pyridin-3-yl]-3-(1H-tetrazol-5-yl)phenyl} cyclopropane-carboxamide] |
